The values that follow come from ChEMBL document CHEMBL1124105, “Analogues of gamma-hydroxybutyric acid. Synthesis and binding studies” (J Med Chem, 1988).

For assay [1], the target named is T1, Gamma-hydroxybutyrate receptor (Rattus norvegicus) (UniProt Q6RY99).
T1 sequence (whole entry): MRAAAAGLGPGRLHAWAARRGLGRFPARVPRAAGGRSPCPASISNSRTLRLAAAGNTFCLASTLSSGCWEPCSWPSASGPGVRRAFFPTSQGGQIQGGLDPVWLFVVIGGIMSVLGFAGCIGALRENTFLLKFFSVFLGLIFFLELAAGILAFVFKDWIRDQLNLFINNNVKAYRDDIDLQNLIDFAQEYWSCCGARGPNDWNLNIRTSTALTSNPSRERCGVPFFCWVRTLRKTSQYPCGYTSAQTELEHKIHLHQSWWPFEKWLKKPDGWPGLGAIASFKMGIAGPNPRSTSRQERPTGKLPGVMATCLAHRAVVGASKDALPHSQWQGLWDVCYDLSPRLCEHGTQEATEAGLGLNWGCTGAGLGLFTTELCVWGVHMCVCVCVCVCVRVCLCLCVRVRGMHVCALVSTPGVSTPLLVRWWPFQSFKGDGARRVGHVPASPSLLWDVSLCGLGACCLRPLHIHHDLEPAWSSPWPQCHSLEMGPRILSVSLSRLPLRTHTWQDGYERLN
Particulars: at 10 µM.

Assay [2] has as its target T1, Gamma-hydroxybutyrate receptor (Rattus norvegicus). As to conditions: at 10 µM. This is another data set of the same source.
For assay [3] the target is unchanged. Particulars: at 1 µM.

The source made the active and inactive calls. The rule behind the calls is not given here.

Broadly, the inhibition is the relative decrease from the control value, in per cent. Take `NCCCC(=O)O`: in assay [1], the inhibition result is “inactive”.
Turning to `O=C(O)CCCCO`, the inhibition stood at 53% in assay [2] and 22% in assay [3].
With `CC(C)C(CO)CC(=O)O` (configuration not stated), the inhibition entry in assay [1] is “inactive”.
In assay [2], `CC(CCO)C(=O)O` (configuration not stated) yielded an inhibition of 24%.
With `O=C(O)/C=C/C(O)C1CCCCC1` (configuration not stated), the inhibition in assay [2] stood at 46%; in assay [3], 13%.
In turn, `CCC(CO)CC(=O)O` (configuration not stated) had an inhibition in assay [2] of 43%.
On to `O=C1C=CCO1`, for which the inhibition result in assay [1] is “inactive”.
The same measure, in the same setting: with `O=S(=O)(O)CCCO` the entry was “inactive”.
Take `O=C(O)CCC(O)c1ccccc1` (configuration not stated): the results for the inhibition in assay [2] and in assay [3] were 56% and 13%, respectively.
Take `C=C(C)[C@@H]1[C@H]2OC(=O)[C@@H]1[C@]1(O)C[C@H]3OC34C(=O)O[C@H]2[C@@]41C.CC(C)(O)[C@@H]1[C@H]2OC(=O)[C@@H]1[C@]1(O)C[C@H]3OC34C(=O)O[C@H]2[C@@]41C` (some centres not stated): the inhibition entry in assay [1] is “inactive”.
As for `CC(O)CCC(=O)O` (configuration not stated), the inhibition in assay [2] was 63%; in assay [3], 12%.
In the case of `CC(CO)C(C)C(=O)O` (configuration not stated), the inhibition result in assay [1] is “inactive”.
Still for that read-out and setting: with `O=C(O)CC(CO)c1ccccc1` (configuration not stated) the entry was “inactive”.
As for `O=C(O)/C=C(/CO)c1ccccc1`, the inhibition in assay [2] worked out at 34%; in assay [3], 21%.
For `O=C(O)CCCO` the same measures were 55% and 35%.
For `O=C(O)/C=C/CO` the same measures were 64% and 44%.
As to `C/C(=C\C(=O)O)CO`, the inhibition in assay [2] was found to be 55%; in assay [3], 11%. The inhibition result in assay [1] was “inactive”.
As for `O=S(=O)([O-])CCO.[Na+]`, in assay [1], the inhibition result was “inactive”.
Same read-out and setting: with `O=C(O)C(CCO)c1ccccc1` (configuration not stated) the entry was “inactive”.
In the case of `O=C(O)/C=C/C(O)c1ccccc1` (configuration not stated), the figures for the inhibition in assay [2] and in assay [3] were 70% and 39%, respectively.
Take `O=S(=O)(O)CCCCO`: the inhibition result in assay [1] was “inactive”.
Same read-out and setting: with `O=C1CCCO1` the entry was “inactive”.
On the same count and under the same terms, with `O=C(O)CCO` the entry was “inactive”.
In assay [2], `CC(CO)CC(=O)O` (configuration not stated) came in with an inhibition of 59%.
For the compound `O=C(O)CC(CO)Cc1ccccc1` (configuration not stated), the inhibition result in assay [1] is “inactive”.
In turn, `CCCC(CO)CC(=O)O` (configuration not stated) displayed an inhibition in assay [2] of 5%.
On to `OCCCCO`, for which, in assay [1], the inhibition result was “inactive”.
